As usually defined, the GI50 is the concentration at which growth is held to half of that of the control. As usually defined, the TGI is the concentration at which net growth stops. Read a low TGI as greater sensitivity of the cells.

This note sets out measurements from PubChem BioAssay (NCI).

Each structure is given as a SMILES string.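 These data come from cells grown in 96-well plates and exposed to compound for 48 hours at five concentrations. GI50 = concentration required for 50% inhibition of growth. At the TGI there is no net growth.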 Bounds are passed on as bounds.

Some test systems named below: A498 renal; DU-145 prostate; HL-60(TB) leukemia; MALME-3M melanoma; NCI-H460 lung; OVCAR-5 ovarian; SF-539 CNS; SR leukemia; T-47D breast; UACC-257 melanoma.
What all share (assay): DTP human tumour cell line panel, 48 h

With `COc1cc(C(=O)NC2c3ccccc3-c3ccccc32)c(N)cc1OCc1ccccc1`, the GI50 in the assay with A498 renal was 37 µM; with DU-145 prostate, 2.87 µM; with HL-60(TB) leukemia, greater than 71.7 µM; with MALME-3M melanoma, 26.6 µM; in the assay with NCI-H460 lung it was 35.1 µM; in the assay on OVCAR-5 ovarian, 52.5 µM. The GI50 in the assay on SF-539 CNS is 11.8 µM; with SR leukemia, 98.6 µM; with T-47D breast, 29.5 µM; with UACC-257 melanoma it was 58.7 µM. For the same compound, the TGI in the assay with A498 renal was greater than 100 µM; in the assay on DU-145 prostate it was greater than 100 µM; with HL-60(TB) leukemia, greater than 100 µM; in the assay with MALME-3M melanoma, greater than 76.6 µM; in the assay with NCI-H460 lung, greater than 100 µM; with OVCAR-5 ovarian it was greater than 100 µM. The TGI is 28.3 µM in the assay with SF-539 CNS, greater than 100 µM in the assay on SR leukemia, greater than 100 µM in the assay on T-47D breast and greater than 100 µM in the assay on UACC-257 melanoma.
Turning to `CCCCCCCCCCCCCC(=S)NCCCC[C@H](NC(=O)OCc1ccccc1)C(=O)Nc1ccccc1`, the GI50 was 3.75 µM in the assay on A498 renal; 6.78 µM with DU-145 prostate; 3.89 µM with HL-60(TB) leukemia; 7.41 µM in the assay on MALME-3M melanoma; 4.02 µM with NCI-H460 lung; 10.3 µM with OVCAR-5 ovarian. Moreover, the GI50 is 10.7 µM in the assay on SF-539 CNS, 3.9 µM in the assay with SR leukemia, 4.52 µM with T-47D breast and 5.38 µM in the assay with UACC-257 melanoma. Besides, the TGI in the assay with A498 renal, in the assay on DU-145 prostate, in the assay with HL-60(TB) leukemia, in the assay with MALME-3M melanoma, in the assay with NCI-H460 lung and in the assay with OVCAR-5 ovarian was greater than 100 µM each time. In addition, the TGI with SF-539 CNS, in the assay on SR leukemia, with T-47D breast and in the assay with UACC-257 melanoma was greater than 100 µM throughout.
Regarding `COc1ccc(C(=S)N2CCN(c3cccc(Cl)c3)CC2)cc1`, the GI50 in the assay with A498 renal, with DU-145 prostate, in the assay with HL-60(TB) leukemia, in the assay on MALME-3M melanoma, with NCI-H460 lung and in the assay on OVCAR-5 ovarian was greater than 100 µM throughout. The GI50 in the assay with SF-539 CNS is greater than 100 µM; in the assay on SR leukemia it was greater than 100 µM; in the assay on T-47D breast it was 65.8 µM; with UACC-257 melanoma, greater than 100 µM. For the same compound, the TGI in the assay on A498 renal, in the assay with DU-145 prostate, in the assay with HL-60(TB) leukemia, in the assay with MALME-3M melanoma, in the assay with NCI-H460 lung and in the assay with OVCAR-5 ovarian was greater than 100 µM throughout. For the same compound, the concentration for total growth inhibition (TGI) in the assay on SF-539 CNS, in the assay on SR leukemia, with T-47D breast and in the assay with UACC-257 melanoma was greater than 100 µM each time.
With `O=C(Nc1nc2ccccc2s1)OCC(F)(F)F`, the GI50 in the assay with A498 renal, in the assay on DU-145 prostate, in the assay on HL-60(TB) leukemia, with MALME-3M melanoma, with NCI-H460 lung and in the assay with OVCAR-5 ovarian was greater than 100 µM in each case. Moreover, the GI50 in the assay on SF-539 CNS, in the assay on SR leukemia, in the assay with T-47D breast and in the assay with UACC-257 melanoma was greater than 100 µM in each case. The TGI in the assay on A498 renal, with DU-145 prostate, in the assay on HL-60(TB) leukemia, with MALME-3M melanoma, with NCI-H460 lung and in the assay on OVCAR-5 ovarian was greater than 100 µM throughout. The TGI with SF-539 CNS, in the assay with SR leukemia, in the assay on T-47D breast and in the assay on UACC-257 melanoma was greater than 100 µM in each case.
Consider `CC(C)(C)OC(=O)NC(Cc1ccccc1)C(=O)OCN1C(=O)C2C3C=CC(C2C1=O)C1C2C(=O)N(COC(=O)C(Cc4ccccc4)NC(=O)OC(C)(C)C)C(=O)C2C31` (stereo not drawn), for which the total growth inhibition concentration (TGI) was greater than 90.9 µM with A498 renal; greater than 100 µM with DU-145 prostate; greater than 57.5 µM with HL-60(TB) leukemia; greater than 100 µM in the assay on MALME-3M melanoma; greater than 100 µM in the assay with NCI-H460 lung; greater than 100 µM with OVCAR-5 ovarian. Besides, the TGI was greater than 100 µM with SF-539 CNS, 4.06 µM with SR leukemia, greater than 100 µM with T-47D breast and greater than 100 µM in the assay with UACC-257 melanoma.
With `COc1cc2ncn(-c3cc(OCc4ccccc4Cl)c(C(N)=O)s3)c2cc1OC`, the GI50 in the assay with A498 renal is 0.117 µM; in the assay on DU-145 prostate it was 0.105 µM; in the assay with HL-60(TB) leukemia, 0.0741 µM; in the assay on MALME-3M melanoma it was greater than 25 µM; in the assay with NCI-H460 lung, 0.146 µM; in the assay with OVCAR-5 ovarian it was 0.492 µM. Further, the GI50 in the assay on SF-539 CNS was 0.249 µM; in the assay with SR leukemia it was 0.113 µM; with T-47D breast it was 3.78 µM. Moreover, the TGI with A498 renal was 3.21 µM; in the assay on DU-145 prostate, 0.511 µM; in the assay on MALME-3M melanoma it was greater than 25 µM; in the assay with NCI-H460 lung, greater than 8.64 µM; with OVCAR-5 ovarian, greater than 25 µM; in the assay with SF-539 CNS, 4.31 µM. Further, the TGI in the assay with SR leukemia, in the assay with T-47D breast and with UACC-257 melanoma was greater than 25 µM throughout.
With `COc1ccc(-c2nn(-c3cccc(Cl)c3)cc2C2CC(c3ccccc3)=NN2C(C)=O)cc1` (stereo not drawn), the GI50 in the assay with A498 renal was 3.33 µM; in the assay with DU-145 prostate it was 5.25 µM; in the assay with HL-60(TB) leukemia it was greater than 100 µM; in the assay with MALME-3M melanoma it was 4.87 µM; in the assay on NCI-H460 lung it was 4.17 µM; with OVCAR-5 ovarian, greater than 100 µM. The GI50 in the assay on SF-539 CNS was 5.4 µM; with SR leukemia, 8.98 µM; with T-47D breast, 8.53 µM; with UACC-257 melanoma, 32.1 µM. Further, the TGI in the assay with A498 renal is 50.4 µM; in the assay with DU-145 prostate it was greater than 100 µM; in the assay on HL-60(TB) leukemia, greater than 100 µM; in the assay on MALME-3M melanoma it was 35.2 µM; in the assay with NCI-H460 lung it was greater than 100 µM; with OVCAR-5 ovarian it was greater than 100 µM. Besides, the concentration for total growth inhibition (TGI) with SF-539 CNS is 58.7 µM; in the assay with SR leukemia, greater than 100 µM; with T-47D breast it was greater than 100 µM; in the assay with UACC-257 melanoma, greater than 100 µM.
Consider `Cc1ccc2c(C(C[N+](=O)[O-])c3cccs3)c(-c3ccccc3)[nH]c2c1` (stereo not drawn), for which the GI50 in the assay with A498 renal is 1.05 µM; in the assay with DU-145 prostate, 3.7 µM; with HL-60(TB) leukemia, 1.14 µM; in the assay on MALME-3M melanoma it was 1.55 µM; in the assay on NCI-H460 lung it was 1.38 µM; in the assay with OVCAR-5 ovarian it was 4.07 µM. Further, the GI50 is 1.54 µM in the assay on SF-539 CNS, 1.43 µM in the assay on SR leukemia, 2.22 µM with T-47D breast and 3.88 µM in the assay with UACC-257 melanoma. The TGI came to 4.34 µM with A498 renal; 16.9 µM in the assay on DU-145 prostate; 14.6 µM with HL-60(TB) leukemia; 6.12 µM with MALME-3M melanoma; 6.14 µM with NCI-H460 lung; 11.1 µM in the assay with OVCAR-5 ovarian. The TGI in the assay on SF-539 CNS is 6.21 µM; in the assay on SR leukemia, greater than 33.3 µM; in the assay with T-47D breast it was 27.4 µM; with UACC-257 melanoma, 13.7 µM.
